Assay results published in PMC4134498 (British Journal of Cancer, 2014).
“Also recorded” adds a separate entry of the source. Marks after values point to notes of the source that are not given here.

Legend:
[1] = system: patients with advanced solid tumours; experiment: Phase I study of olaparib capsules plus PLD; type: in vivo
[2] = ref Fong et al, 2009; cited from earlier work
[3] = system: platinum-sensitive, relapsed, high-grade serous ovarian cancer; conditions: olaparib maintenance, ref Ledermann et al, 2012, cited from earlier work
[4] = continuous dosing, ref Mateo et al, 2013; cited from earlier work
[5] = all olaparib cohorts + PLD 40 mg m^−2, Total (n=44)
[6] = olaparib 50 mg bid 7 day + PLD 40 mg m^−2 (n=3)
[7] = olaparib 100 mg bid 7 day + PLD 40 mg m^−2 (n=3)
[8] = olaparib 100 mg bid 28 day + PLD 40 mg m^−2 (n=4)
[9] = olaparib 200 mg bid 7 day + PLD 40 mg m^−2 (n=3)
[10] = olaparib 200 mg bid 28 day + PLD 40 mg m^−2 (n=7)
[11] = olaparib 400 mg bid 7 day + PLD 40 mg m^−2 (n=12)
[12] = olaparib 400 mg bid 28 day + PLD 40 mg m^−2 (n=12)
[13] = olaparib + PLD, all cohorts (n=2)
[14] = olaparib + PLD, all cohorts, n=44

## O=C(c1cc(Cc2n[nH]c(=O)c3ccccc23)ccc1F)N1CCN(C(=O)C2CC2)CC1 [olaparib]
[1]; [5]
  Anorexia, patients with grade ⩾3 AE: 2 (5) n (%)
  Anorexia, patients with treatment-related AE: 12 (27) n (%)
  Asthenia, patients with grade ⩾3 AE: 1 (2) n (%)
  Asthenia, patients with treatment-related AE: 21 (48) n (%)
  Decreased neutrophil count, patients with grade ⩾3 AE: 9 (20) n (%)
  Decreased neutrophil count, patients with treatment-related AE: 13 (30) n (%)
  Nausea, patients with grade ⩾3 AE: 5 (11) n (%)
  Nausea, patients with treatment-related AE: 28 (64) n (%)
  PPES, patients with grade ⩾3 AE: 1 (2) n (%)
  PPES, patients with treatment-related AE: 11 (25) n (%)
  Stomatitis, patients with grade ⩾3 AE: 7 (16) n (%)
  Stomatitis, patients with treatment-related AE: 32 (73) n (%)
  Vomiting, patients with grade ⩾3 AE: 1 (2) n (%)
  Vomiting, patients with treatment-related AE: 13 (30) n (%)
[1]; [6]
  Asthenia, patients with treatment-related AE: 2 n
  Decreased neutrophil count, patients with grade ⩾3 AE: 2 n
  Decreased neutrophil count, patients with treatment-related AE: 2 n
  Nausea, patients with treatment-related AE: 3 n
  Stomatitis, patients with treatment-related AE: 3 ^b n
[1]; [7]
  Asthenia, patients with treatment-related AE: 1 n
  Decreased neutrophil count, patients with grade ⩾3 AE: 3 n
  Decreased neutrophil count, patients with treatment-related AE: 3 n
  Nausea, patients with grade ⩾3 AE: 1 n
  Nausea, patients with treatment-related AE: 2 n
  Stomatitis, patients with grade ⩾3 AE: 2 ^c n
  Stomatitis, patients with treatment-related AE: 3 n
  Vomiting, patients with treatment-related AE: 1 n
[1]; [8]
  Anorexia, patients with grade ⩾3 AE: 1 n
  Anorexia, patients with treatment-related AE: 1 n
  Asthenia, patients with treatment-related AE: 2 n
  Decreased neutrophil count, patients with grade ⩾3 AE: 1 n
  Decreased neutrophil count, patients with treatment-related AE: 2 n
  Nausea, patients with treatment-related AE: 2 n
  Stomatitis, patients with treatment-related AE: 2 n
[1]; [9]
  Asthenia, patients with treatment-related AE: 2 n
  Decreased neutrophil count, patients with treatment-related AE: 1 n
  Nausea, patients with treatment-related AE: 2 n
  PPES, patients with treatment-related AE: 1 n
  Stomatitis, patients with treatment-related AE: 2 n
[1]; [10]
  Anorexia, patients with grade ⩾3 AE: 1 n
  Anorexia, patients with treatment-related AE: 3 n
  Asthenia, patients with treatment-related AE: 2 n
  Decreased neutrophil count, patients with grade ⩾3 AE: 1 n
  Decreased neutrophil count, patients with treatment-related AE: 1 n
  Nausea, patients with treatment-related AE: 3 n
  PPES, patients with treatment-related AE: 2 n
  Stomatitis, patients with grade ⩾3 AE: 1 n
  Stomatitis, patients with treatment-related AE: 5 n
  Vomiting, patients with treatment-related AE: 3 n
[1]; [11]
  Anorexia, patients with treatment-related AE: 4 n
  Asthenia, patients with grade ⩾3 AE: 1 n
  Asthenia, patients with treatment-related AE: 6 n
  Decreased neutrophil count, patients with grade ⩾3 AE: 1 n
  Decreased neutrophil count, patients with treatment-related AE: 2 n
  Nausea, patients with grade ⩾3 AE: 4 n
  Nausea, patients with treatment-related AE: 8 n
  PPES, patients with treatment-related AE: 4 n
  Stomatitis, patients with grade ⩾3 AE: 2 n
  Stomatitis, patients with treatment-related AE: 6 n
  Vomiting, patients with grade ⩾3 AE: 1 n
  Vomiting, patients with treatment-related AE: 6 n
[1]; [12]
  Anorexia, patients with treatment-related AE: 4 n
  Asthenia, patients with treatment-related AE: 6 n
  Decreased neutrophil count, patients with grade ⩾3 AE: 1 n
  Decreased neutrophil count, patients with treatment-related AE: 2 n
  Nausea, patients with treatment-related AE: 8 n
  PPES, patients with grade ⩾3 AE: 1 n
  PPES, patients with treatment-related AE: 4 n
  Stomatitis, patients with grade ⩾3 AE: 2 n
  Stomatitis, patients with treatment-related AE: 11 n
  Vomiting, patients with treatment-related AE: 3 n
[1]; olaparib + PLD, all cohorts
  patients with alterations in neutrophil count: 30%
[1]; [13]
  Grade ⩾3 haematologic alterations: haemoglobin: 5%
  Grade ⩾3 haematologic alterations: white blood cells: 5%
[1]; olaparib + PLD, all cohorts (n=3)
  Grade ⩾3 haematologic alterations: platelets: 7%
[1]; [14]
  alterations in neutrophil count reported as AEs: 13 n
  overall incidence of CTCAE grade ⩾3 events: 61%
  patients discontinued/withdrawn because of treatment-related AEs: seven
  patients who died during the study: Five
  patients with treatment-related serious AEs: five
[1]; olaparib + PLD, all cohorts, n=44 (12 patients)
  patients with serious AEs: 27%
[1]; olaparib + PLD, 100 mg 28-day, 200 mg 28-day and 400 mg 7-day cohorts
  patients with serious AEs of pneumonitis: three
[1]; up to continuous olaparib 400 mg bid + PLD 40 mg m^−2
  MTD of olaparib with PLD: not reached; also recorded: could not be determined
[2]
  MTD of olaparib monotherapy (capsule formulation): 400 mg twice daily (bid)
[3]; 95% CI, 0.25–0.49, P<0.00001
  PFS hazard ratio vs placebo: 0.35
[3]
  median PFS: 8.4 months
[4]
  recommended dose of the olaparib tablet formulation: 300 mg bid
